This note sets out measurements from ChEMBL document CHEMBL1201862, “PubChem BioAssay data set” (2004).

A word on the IC50: it is the concentration that gives 50% inhibition. The EC50 is the concentration that produces a half-maximal response. For orientation: AC50 means the concentration at which the activity in the assay is half-maximal. One may read the CC50 as the concentration at which the toxic effect on the cells reaches its halfway point.

Active and inactive are the calls of the source.

The subject of experiment [1] is HEK293. The experiment is described as follows: cells. The experiment is classed as functional, cell-based. The note with it: Homo sapiens.
Experiment [2] has as its system HEK293. The experiment is described as follows: cells. Format: functional, cell-based. As to conditions: Homo sapiens. The source holds these as a separate data set.
The target of experiment [3] is Nucleotide-binding oligomerization domain-containing protein 1 (Homo sapiens, UniProt Q9Y239). Briefly: NOD1 signaling inhibitors, SAR follow-up, revised (AID 2333). The experiment is classed as functional.
Chain of Nucleotide-binding oligomerization domain-containing protein 1 (Q9Y239 whole entry, the tested form may be a part): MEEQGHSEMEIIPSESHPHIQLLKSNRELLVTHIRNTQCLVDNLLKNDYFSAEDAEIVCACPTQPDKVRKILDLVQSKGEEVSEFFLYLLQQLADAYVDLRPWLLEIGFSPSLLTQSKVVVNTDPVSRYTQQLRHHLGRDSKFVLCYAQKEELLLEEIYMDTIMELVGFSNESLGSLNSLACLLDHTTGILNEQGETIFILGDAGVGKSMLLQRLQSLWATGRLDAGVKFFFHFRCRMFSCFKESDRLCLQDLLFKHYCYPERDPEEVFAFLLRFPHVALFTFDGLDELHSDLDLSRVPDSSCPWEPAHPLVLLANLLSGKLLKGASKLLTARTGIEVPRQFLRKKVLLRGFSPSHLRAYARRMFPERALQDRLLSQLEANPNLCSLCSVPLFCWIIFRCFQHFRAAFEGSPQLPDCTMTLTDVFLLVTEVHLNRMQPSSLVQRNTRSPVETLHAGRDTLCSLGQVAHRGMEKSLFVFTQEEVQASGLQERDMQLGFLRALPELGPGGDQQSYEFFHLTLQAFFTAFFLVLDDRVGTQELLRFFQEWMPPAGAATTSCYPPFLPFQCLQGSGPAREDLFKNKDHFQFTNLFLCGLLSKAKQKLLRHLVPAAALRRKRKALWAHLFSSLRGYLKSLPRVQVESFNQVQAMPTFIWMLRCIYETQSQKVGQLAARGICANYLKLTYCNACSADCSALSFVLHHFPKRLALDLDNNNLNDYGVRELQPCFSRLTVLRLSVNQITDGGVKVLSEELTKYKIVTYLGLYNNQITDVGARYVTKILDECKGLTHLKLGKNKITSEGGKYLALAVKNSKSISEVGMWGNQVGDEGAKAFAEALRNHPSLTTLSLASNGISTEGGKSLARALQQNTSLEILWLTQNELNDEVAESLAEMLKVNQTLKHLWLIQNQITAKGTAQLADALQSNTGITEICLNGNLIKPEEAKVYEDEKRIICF
For experiment [4], the system named is HEK293. Briefly: cells. The note with it: Homo sapiens.
Experiment [5] addresses T1, Nucleotide-binding oligomerization domain-containing protein 2 (Homo sapiens, UniProt Q9HC29). Briefly: PubChem AID 2334. The experiment is classed as functional.
Experiment [6] addresses Tumor necrosis factor (Homo sapiens, UniProt P01375). Briefly: TNFa-triggered NF-kB activation inhibitors, SAR follow-up, cell-based, revised (AID 2337). The experiment is classed as functional.
In experiment [7] the target is T1, Nucleotide-binding oligomerization domain-containing protein 2. Briefly: NOD2 signaling inhibitors, cell-based, luminescence, uHTS, HEK293 (AID 1566). Format: functional.
The subject of experiment [8] is HEK293. The experiment is described as follows: NOD1 signaling inhibitors, primary screen, cell-based, luminescence, uHTS (AID 1578). The experiment is classed as functional. As to conditions: Homo sapiens.
The test system of experiment [9] is HEK293. The experiment is described as follows: cells. Format: functional, cell-based. As to conditions: Homo sapiens. The source holds these as a separate data set.
Experiment [10] has as its system HEK293. Briefly: NOD2 signaling inhibitors in MDP-stimulated cells, cell-based, uHTS, luminescence (AID 2001). Format: functional. The note with it: Homo sapiens.
Experiment [11] has as its target T2, Dual specificity protein phosphatase 3 (Homo sapiens, UniProt P51452). Briefly: VHR1 phosphatase inhibitors, biochemical (AID 1878).
The target in experiment [12] is T3, Cysteine protease ATG4B (Homo sapiens, UniProt Q9Y4P1).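 Further: Fluorescence-based dose-response confirmation assay measuring inhibition of ATG4B activity.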
T3 sequence (Q9Y4P1 whole entry): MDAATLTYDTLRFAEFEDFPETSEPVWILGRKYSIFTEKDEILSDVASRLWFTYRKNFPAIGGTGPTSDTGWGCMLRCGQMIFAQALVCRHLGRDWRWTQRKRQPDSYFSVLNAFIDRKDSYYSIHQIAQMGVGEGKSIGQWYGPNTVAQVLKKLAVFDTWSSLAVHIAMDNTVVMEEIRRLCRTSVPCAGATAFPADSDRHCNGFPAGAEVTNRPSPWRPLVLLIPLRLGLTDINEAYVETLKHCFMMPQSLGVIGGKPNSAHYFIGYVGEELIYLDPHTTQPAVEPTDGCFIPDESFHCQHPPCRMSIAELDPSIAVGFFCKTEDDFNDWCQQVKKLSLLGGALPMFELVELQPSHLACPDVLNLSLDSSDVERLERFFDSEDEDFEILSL
Format: functional.

The target of experiment [13] is Phospholipase A2 (Homo sapiens, UniProt P04054). The experiment is classed as functional.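 Further: confirmatory dose-response counterscreen on phospholipase A2, testing hits that came from an ultra-high-throughput screen for ATG4B inhibitors.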
Chain of Phospholipase A2 (P04054 whole entry): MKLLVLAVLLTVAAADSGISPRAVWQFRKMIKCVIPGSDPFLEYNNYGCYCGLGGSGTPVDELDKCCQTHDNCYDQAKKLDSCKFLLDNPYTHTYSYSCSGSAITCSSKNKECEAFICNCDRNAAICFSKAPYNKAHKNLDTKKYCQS
Experiment [14] addresses T4, Dual specificity protein phosphatase 6 (Rattus norvegicus, UniProt Q64346).
T4 sequence (Q64346 whole entry): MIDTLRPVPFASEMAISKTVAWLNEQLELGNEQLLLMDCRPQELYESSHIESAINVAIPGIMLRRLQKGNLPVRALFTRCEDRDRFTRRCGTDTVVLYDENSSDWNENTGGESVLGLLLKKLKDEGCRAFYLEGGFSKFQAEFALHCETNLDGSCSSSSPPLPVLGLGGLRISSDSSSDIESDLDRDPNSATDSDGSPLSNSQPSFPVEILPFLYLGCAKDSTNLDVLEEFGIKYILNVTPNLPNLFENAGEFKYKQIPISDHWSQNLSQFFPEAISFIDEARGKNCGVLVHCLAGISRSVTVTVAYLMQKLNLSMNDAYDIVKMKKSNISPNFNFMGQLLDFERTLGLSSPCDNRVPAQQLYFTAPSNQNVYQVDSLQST
The experiment is described as follows: MKP-3 phosphatase inhibitors, primary screen, biochemical, rat enzyme, in vitro (AID 425).

In experiment [15] the target is T5, Carboxy-terminal domain RNA polymerase II polypeptide A small phosphatase 1 (Homo sapiens, UniProt Q9GZU7).
T5 sequence (Q9GZU7 whole entry): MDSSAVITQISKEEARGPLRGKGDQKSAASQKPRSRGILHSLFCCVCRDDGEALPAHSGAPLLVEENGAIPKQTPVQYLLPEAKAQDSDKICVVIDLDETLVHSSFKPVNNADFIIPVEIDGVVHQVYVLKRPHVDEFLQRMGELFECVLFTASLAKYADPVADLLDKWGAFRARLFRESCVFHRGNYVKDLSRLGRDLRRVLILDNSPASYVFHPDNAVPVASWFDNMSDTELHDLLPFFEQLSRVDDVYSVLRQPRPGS
The experiment is described as follows: inhibitors of CTDSP1, concentration-response testing, biochemical assay, absorbance-based, actives from ultra-high-throughput screening (AID 540297). Format: functional.

Experiment [16] has as its target T2, Dual specificity protein phosphatase 3. The experiment is described as follows: VHR1 phosphatase inhibitors, primary screen, biochemical, absorbance, uHTS (AID 1654).
In experiment [17] the test system is HeLa. The experiment is described as follows: HeLa cell cytotoxicity, dose response, cytotoxicity control for MITF activator project, CellTiter-Glo luminescence, cherry-pick samples (AID 540259). The experiment is classed as functional, cell-based. The note with it: Homo sapiens. For orientation: Cellular ATP, detected with luciferase, serves as a proxy for viable cell number.

Experiment [18] can be described thus: ZM109 Env clade C HIV-1 fusion inhibitors, dose response, HeLa effector, CEM target cells, luciferase, cherry-pick (AID 652058). Format: functional, cell-based.
For experiment [19], the system named is HEK293. The experiment is described as follows: cells. As to conditions: Homo sapiens. This is another data set of the same source.
Experiment [20] can be described thus: inhibitors of HIV Env-driven cell fusion, dose response, cherry-pick (AID 652057). The experiment is classed as functional, cell-based.
Experiment [21] relates to HEK293. The experiment is described as follows: cells. The note with it: Homo sapiens. This is another data set of the same source.
Experiment [22] can be described thus: inhibitors of clade B AD8 Env fusion, dose response, cell-based, cherry-pick (AID 652062).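 Further: luciferase signal from cell-cell fusion driven by HIV-1 clade B AD8 Env; potency is for inhibitors of fusion seen as a drop in luminescence.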 The experiment is classed as functional.
Experiment [23] is described as follows: off-target signal loss in HeLa-CEM21 co-culture – HeLa F-luc CTL cells, cherry-picked, counter-screen for HIV-1 Env fusion inhibitor project, dose response (AID 652040).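 Further: potency for signal decrease marking cytotoxic or nonspecific inhibition.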 The experiment is classed as functional, cell-based. (In general: Counterscreens check selectivity or assay interference.)
The nature of experiment [24]: Luminescence Cell-Based Dose Retest to Confirm Inhibitors of Cancer Stem Cells. [Related pubchem assays (depositor defined):AID2717, AID2721]. The experiment is classed as functional. As to conditions: Homo sapiens.
Experiment [25] has as its target T6, Microphthalmia-associated transcription factor (Homo sapiens, UniProt O75030).
T6 sequence (O75030 whole entry): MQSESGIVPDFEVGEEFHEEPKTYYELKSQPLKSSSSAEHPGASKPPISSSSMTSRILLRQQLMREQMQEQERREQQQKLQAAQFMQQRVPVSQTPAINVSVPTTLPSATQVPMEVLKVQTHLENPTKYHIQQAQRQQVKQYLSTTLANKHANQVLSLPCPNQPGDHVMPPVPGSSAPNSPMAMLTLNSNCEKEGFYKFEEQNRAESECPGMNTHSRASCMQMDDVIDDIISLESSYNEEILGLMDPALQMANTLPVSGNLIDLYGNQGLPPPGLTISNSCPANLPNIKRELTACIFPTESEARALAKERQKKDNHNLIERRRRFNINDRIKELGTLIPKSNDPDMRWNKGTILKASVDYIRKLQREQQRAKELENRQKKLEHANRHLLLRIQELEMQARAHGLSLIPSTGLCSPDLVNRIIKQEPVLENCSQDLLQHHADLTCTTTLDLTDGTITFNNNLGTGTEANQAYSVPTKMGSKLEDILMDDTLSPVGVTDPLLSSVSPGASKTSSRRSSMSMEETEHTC
The experiment is described as follows: TRPM1 promoter luciferase signal decrease, dose response, MITF inhibitor project, cell-based, SK-MEL-5, cherry-picked, set 3 (AID 493073).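 Further: SK-MEL-5 melanoma cells with luciferase driven by the MITF target TRPM1 promoter.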 The experiment is classed as functional.

Experiment [26] deals with A-375. Briefly: A375 melanoma cell viability reduction, dose response, counter-screen for MITF modulator project, cherry-pick samples, set 2 (AID 540335). Format: functional, cell-based. As to conditions: Homo sapiens.
The target of experiment [27] is Hepatocyte nuclear factor 4-alpha (Homo sapiens, UniProt P41235). Format: functional, cell-based.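 Further: biochemical luminescence-based dose-response counterscreen measuring inhibition of HNF4 dimerization, run alongside a screen for blockers of ABHD5–perilipin-5 interaction; split luciferase complementation of HNF4 fusion proteins in cell lysate measuring dimerization.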
Chain of Hepatocyte nuclear factor 4-alpha (P41235 whole entry, the tested form may be a part): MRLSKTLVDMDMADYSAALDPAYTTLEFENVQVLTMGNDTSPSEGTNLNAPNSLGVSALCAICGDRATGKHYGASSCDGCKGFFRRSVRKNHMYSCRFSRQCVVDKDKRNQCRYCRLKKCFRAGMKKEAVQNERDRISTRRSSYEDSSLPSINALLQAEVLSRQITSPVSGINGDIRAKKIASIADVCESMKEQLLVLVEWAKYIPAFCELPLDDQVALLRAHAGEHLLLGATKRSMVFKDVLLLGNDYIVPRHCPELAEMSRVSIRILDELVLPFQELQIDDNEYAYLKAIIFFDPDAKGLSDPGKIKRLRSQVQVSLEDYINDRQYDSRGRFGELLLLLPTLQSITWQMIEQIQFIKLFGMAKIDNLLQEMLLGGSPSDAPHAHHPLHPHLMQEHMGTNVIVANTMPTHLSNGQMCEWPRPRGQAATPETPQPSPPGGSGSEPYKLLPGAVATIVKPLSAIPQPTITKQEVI
Experiment [28] in a line: THP-1 cell cytotoxicity, dose response, cytotoxicity control for Vif-APOBEC3G degradation inhibitor project, THP-1 cells (AID 1117359). As to conditions: Human immunodeficiency virus 1, THP-1. Format: functional.
For experiment [29], the target named is T7, Endoribonuclease toxin MazF (Escherichia coli K-12, UniProt P0AE70).
T7 sequence (P0AE70 whole entry): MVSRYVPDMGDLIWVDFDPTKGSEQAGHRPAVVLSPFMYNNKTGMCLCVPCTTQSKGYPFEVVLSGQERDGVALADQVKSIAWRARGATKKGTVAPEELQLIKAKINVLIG
The experiment is described as follows: MazF toxin RNase activators, dose response, biochemical, fluorescence, single-stranded RNA substrate, uHTS hits (AID 588481). Format: functional.

The target in experiment [30] is T7, Endoribonuclease toxin MazF. The experiment is described as follows: fluorescent RNA oligo signal without MazF, dose response, counter-screen for MazEF activator project, biochemical, fluorescence, single-stranded RNase substrate (AID 588502). Format: functional.
Experiment [31] concerns the target T8, Type-1 angiotensin II receptor (Homo sapiens, UniProt P30556).
T8 sequence (P30556 whole entry): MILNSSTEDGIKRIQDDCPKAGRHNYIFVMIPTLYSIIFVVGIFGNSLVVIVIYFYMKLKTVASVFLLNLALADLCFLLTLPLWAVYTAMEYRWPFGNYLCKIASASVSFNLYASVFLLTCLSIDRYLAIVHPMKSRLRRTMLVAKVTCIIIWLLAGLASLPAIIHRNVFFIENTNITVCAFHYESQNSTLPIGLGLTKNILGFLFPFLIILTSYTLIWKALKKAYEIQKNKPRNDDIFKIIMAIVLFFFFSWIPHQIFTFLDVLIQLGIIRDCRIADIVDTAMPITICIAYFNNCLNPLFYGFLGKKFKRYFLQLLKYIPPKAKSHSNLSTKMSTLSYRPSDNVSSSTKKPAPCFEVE
Briefly: AT1 receptor antagonists, dose response, selectivity assay for APJ receptor antagonist project, cell-based, uHTS hits (AID 463214).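 Further: antagonist potency against angiotensin II stimulated AT1 response.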 The experiment is classed as functional.

Experiment [32] concerns the target Beta-galactosidase (Escherichia coli, UniProt Q8VNN2). Briefly: PubChem AID 485352. The experiment is classed as functional.

T1 sequence (Q9HC29 whole entry, the tested form may be a part): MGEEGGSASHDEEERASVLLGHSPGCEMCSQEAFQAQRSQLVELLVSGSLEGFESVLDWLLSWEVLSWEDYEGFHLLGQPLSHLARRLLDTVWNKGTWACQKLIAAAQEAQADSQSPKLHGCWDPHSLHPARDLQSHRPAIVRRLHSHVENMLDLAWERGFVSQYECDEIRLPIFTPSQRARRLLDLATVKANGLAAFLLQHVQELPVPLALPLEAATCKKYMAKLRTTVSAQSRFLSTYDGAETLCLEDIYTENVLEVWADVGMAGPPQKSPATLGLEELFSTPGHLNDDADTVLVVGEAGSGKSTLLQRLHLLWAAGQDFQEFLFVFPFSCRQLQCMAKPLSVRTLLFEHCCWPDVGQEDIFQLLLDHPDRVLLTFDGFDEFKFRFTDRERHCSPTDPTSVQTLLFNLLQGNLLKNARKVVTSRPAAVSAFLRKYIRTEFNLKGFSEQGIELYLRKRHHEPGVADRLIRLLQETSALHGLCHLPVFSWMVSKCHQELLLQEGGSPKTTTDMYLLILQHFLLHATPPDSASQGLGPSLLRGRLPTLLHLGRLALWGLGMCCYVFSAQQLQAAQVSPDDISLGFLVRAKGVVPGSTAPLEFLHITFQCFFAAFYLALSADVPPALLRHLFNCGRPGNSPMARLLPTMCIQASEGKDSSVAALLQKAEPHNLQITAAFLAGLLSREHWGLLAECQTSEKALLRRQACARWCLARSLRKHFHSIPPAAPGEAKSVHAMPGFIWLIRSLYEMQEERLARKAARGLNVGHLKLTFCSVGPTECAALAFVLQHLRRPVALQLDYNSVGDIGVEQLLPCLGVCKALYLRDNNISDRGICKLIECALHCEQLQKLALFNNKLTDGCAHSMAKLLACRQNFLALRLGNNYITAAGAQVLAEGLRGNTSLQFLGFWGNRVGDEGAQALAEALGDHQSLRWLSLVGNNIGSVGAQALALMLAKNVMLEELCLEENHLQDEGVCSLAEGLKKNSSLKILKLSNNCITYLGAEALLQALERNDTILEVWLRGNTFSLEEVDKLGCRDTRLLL
T2 sequence (P51452 whole entry): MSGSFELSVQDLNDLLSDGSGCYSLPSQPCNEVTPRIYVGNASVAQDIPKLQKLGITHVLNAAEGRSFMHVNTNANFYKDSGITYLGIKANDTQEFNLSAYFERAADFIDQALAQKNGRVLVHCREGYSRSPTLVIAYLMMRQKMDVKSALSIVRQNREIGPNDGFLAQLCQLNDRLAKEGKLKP
Chain of Tumor necrosis factor (P01375 whole entry, the tested form may be a part): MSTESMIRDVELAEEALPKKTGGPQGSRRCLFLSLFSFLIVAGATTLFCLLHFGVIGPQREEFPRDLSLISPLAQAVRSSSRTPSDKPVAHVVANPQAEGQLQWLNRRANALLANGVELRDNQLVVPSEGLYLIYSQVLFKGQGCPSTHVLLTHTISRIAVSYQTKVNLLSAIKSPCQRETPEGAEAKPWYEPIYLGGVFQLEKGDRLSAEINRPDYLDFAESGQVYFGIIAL
Chain of Beta-galactosidase (Q8VNN2 whole entry): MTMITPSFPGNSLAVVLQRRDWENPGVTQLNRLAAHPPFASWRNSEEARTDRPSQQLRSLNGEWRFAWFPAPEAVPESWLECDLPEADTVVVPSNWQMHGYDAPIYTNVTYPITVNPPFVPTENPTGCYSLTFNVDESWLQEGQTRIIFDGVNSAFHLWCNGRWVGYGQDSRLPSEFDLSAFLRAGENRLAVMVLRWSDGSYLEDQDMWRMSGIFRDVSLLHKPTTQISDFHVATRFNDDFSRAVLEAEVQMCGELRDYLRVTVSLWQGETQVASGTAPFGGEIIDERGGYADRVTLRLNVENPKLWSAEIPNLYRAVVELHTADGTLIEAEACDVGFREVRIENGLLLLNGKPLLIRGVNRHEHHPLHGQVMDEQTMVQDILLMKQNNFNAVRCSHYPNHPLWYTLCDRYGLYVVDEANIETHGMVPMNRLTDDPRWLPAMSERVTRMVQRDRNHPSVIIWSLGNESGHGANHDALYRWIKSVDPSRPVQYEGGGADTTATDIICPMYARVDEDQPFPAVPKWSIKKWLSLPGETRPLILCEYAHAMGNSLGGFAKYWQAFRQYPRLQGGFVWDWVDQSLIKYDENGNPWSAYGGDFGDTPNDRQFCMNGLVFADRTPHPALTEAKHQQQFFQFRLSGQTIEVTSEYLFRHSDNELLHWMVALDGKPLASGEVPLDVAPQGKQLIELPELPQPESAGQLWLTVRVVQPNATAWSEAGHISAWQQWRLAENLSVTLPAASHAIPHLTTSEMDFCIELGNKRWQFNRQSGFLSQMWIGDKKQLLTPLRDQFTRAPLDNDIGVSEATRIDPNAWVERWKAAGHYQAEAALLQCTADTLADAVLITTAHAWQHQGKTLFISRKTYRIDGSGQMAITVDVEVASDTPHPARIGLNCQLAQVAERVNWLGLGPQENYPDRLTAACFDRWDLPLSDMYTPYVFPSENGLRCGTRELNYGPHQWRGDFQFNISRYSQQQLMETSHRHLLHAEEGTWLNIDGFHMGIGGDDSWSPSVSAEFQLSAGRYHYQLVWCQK

`O=C(c1ccc(S(=O)(=O)N2CCCCC2)cc1)N1CCN(CCN2C(=O)c3cccc4cccc(c34)C2=O)CC1`: the IC50 in experiment [1] is 6.57 µM (active); in experiment [2], > 20 µM (inactive); in experiment [3], 6.08 µM (active); in [4], > 20 µM (inactive); in [5], 6.79 µM (active); in [6], 5.55 µM (active). For the same compound, the IC50 in experiment [9] is > 20 µM (inactive); in [10], 8.84 µM (active). Further, the EC50 in experiment [7] and in experiment [8] was > 20 µM (inactive) throughout.

As for `O=C(N/N=C/c1ccccc1Cl)c1nc(O)c2cc([N+](=O)[O-])ccc2n1`, the IC50 in [11] is > 158 µM (inactive); in experiment [12], 10.1 µM (active); in [13], 30.2 µM (inactive); in [14], > 158 µM (not active); in experiment [15], 6.91 µM (active); in experiment [16], 12.8 µM (active).

For the compound `Cc1ccsc1CCNC(=O)C1CCC(=O)N(CCc2cccc(F)c2)C1` (centres undefined), in [17], the AC50 was 99.1 µM (active).

`CCS(=O)(=O)N1Cc2ccccc2CC1C(=O)NCC12CC3CC(CC(C3)C1)C2` (centres undefined): the AC50 was 2.86 µM (active) in [18], 4.37 µM (active) in [20], 19.8 µM (active) in [22] and 7.35 µM (active) in experiment [23]. For the same compound, the EC50 in [19] and in experiment [21] was > 59.7 µM (inactive) throughout.

Take `O=C(Nc1nc2ccccc2n1Cc1ccccc1Cl)c1ccc(Cl)cc1`: the IC50 in experiment [3], in [4], in [5] and in experiment [6] was > 20 µM (inactive) each time.

Regarding `O=C1NC(=O)N(Cc2ccccc2)C(=O)/C1=C\C=C\c1ccco1`, the results for the concentration at half-maximal activity (AC50) in experiment [24], in experiment [25] and in experiment [26] were 1.48 µM (active), 6.29 µM (active) and 30.6 µM (active), respectively. Further, the EC50 in experiment [19] and in [21] was > 59.6 µM (inactive) in each case. Further, the IC50 in [27] is 1.59 µM (active). Besides, in experiment [28], the CC50 was > 40 µM (active).

On to `CC(C)(C)c1ccc(C(=O)CSc2nc3ccccc3c(=O)[nH]2)cc1`, for which the EC50 in [29] and in experiment [30] was > 99 µM (inactive) in each case.

With `COc1cccc(NC(=O)C(=O)NCCC2CCCCN2S(=O)(=O)c2cccs2)c1` (centres undefined), the AC50 in experiment [17] is 239 µM (active).

Regarding `NC(S)=NN=C(S)Nc1ccccc1`, in [31], the IC50 is > 40 µM (not active). For the same compound, the EC50 in experiment [32] was > 40 µM (inactive).
